Measured values published in ChEMBL document CHEMBL6087431, “Discovery of a selective and potent inhibitor of c-Jun N-terminal kinase 1 with anti-pulmonary fibrosis effect” (Bioorg Med Chem Lett, 2025).
The source made the active and inactive calls. The rule behind the calls is not given here.

Experiments:
[1] = target: T1, Mitogen-activated protein kinase 8 (Homo sapiens, UniProt P45983); settings: dose 2.0 nM
[2] = target: T1, Mitogen-activated protein kinase 8; assay: Inhibition of JNK1 (unknown origin)
A549 [3] = assay: Anti-fibrotic activity in human A549 cells assessed as reduction in TGFbeta1-induced c-Jun expression at 0.3 uM by Western blot analysis; format: functional, cell-based
[4] = target: Mitogen-activated protein kinase 9 (Homo sapiens, UniProt P45984); assay: Inhibition of JNK2 (unknown origin)
Chain of Mitogen-activated protein kinase 9 (P45984 whole entry): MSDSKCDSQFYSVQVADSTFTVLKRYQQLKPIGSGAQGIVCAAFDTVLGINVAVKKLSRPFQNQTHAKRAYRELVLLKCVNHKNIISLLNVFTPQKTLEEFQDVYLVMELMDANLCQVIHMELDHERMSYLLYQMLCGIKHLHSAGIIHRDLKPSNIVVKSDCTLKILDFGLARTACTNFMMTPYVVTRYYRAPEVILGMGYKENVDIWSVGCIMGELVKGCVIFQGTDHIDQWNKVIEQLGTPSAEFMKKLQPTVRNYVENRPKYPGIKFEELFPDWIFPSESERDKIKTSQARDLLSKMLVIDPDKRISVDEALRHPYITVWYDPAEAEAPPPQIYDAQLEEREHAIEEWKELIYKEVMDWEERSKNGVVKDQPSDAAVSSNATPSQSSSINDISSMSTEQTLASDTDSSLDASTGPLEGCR

A549 [5] = assay: Anti-fibrotic activity in human A549 cells assessed as reduction in TGFbeta1-induced fibronectin expression at 0.3 uM by Western blot analysis; format: functional, cell-based
[6] = target: T1, Mitogen-activated protein kinase 8; settings: dose 10.0 nM

T1 sequence (P45983 whole entry): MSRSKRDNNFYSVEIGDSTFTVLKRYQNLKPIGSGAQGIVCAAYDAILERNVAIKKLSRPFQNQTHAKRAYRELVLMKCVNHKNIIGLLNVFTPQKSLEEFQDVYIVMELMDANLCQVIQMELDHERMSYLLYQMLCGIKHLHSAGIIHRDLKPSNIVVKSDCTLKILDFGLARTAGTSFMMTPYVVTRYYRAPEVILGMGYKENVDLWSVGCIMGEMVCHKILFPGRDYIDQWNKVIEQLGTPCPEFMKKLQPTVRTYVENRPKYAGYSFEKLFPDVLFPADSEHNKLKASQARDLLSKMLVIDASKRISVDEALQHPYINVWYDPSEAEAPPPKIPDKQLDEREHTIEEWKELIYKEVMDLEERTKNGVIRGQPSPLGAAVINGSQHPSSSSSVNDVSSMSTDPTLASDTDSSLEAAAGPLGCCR

inhibition [1] | SMILES | further results
46.3% | NC(=O)c1ccccc1Nc1nc(Nc2ccc(C(=O)N3C4CCC3COC4)cc2)ncc1Br | 
76.1% | NC(=O)c1ccccc1Nc1nc(Nc2ccc(C(=O)N3CC4CC3CO4)cc2)ncc1Br (stereo not drawn) | IC50 [2]: 0.8 nM; Activity (A549 [3]): Active; IC50 [4]: 8.3 nM; Activity (A549 [5]): Active
49.9% | NC(=O)c1ccccc1Nc1nc(Nc2ccc(C(=O)N3CCC4(CCNC4)CC3)cc2)ncc1Br | 
33.2% | NC(=O)c1ccccc1Nc1nc(Nc2ccc(C(=O)N3CCC4(CCNCC4)CC3)cc2)ncc1Br | 
18.1% | NC(=O)c1ccccc1Nc1nc(Nc2ccccc2)ncc1Br | inhibition [6]: 62.1%; IC50 [2]: 3 nM; IC50 [4]: 9.4 nM
10.8% | NC(=O)c1ccccc1Nc1nc(Nc2ccc(C(=O)N3CC4CC(C3)O4)cc2)ncc1Br | 
inactive | NC(=O)c1ccccc1Nc1nc(Nc2ccc(C(=O)N3CCC4(CCCC4)CC3)cc2)ncc1Br | 
34.4% | NC(=O)c1ccccc1Nc1nc(Nc2ccc(C(=O)N3C4CCC3CNC4)cc2)ncc1Br | 
inactive | NC(=O)c1ccccc1Nc1nc(Nc2ccc(C(=O)N3CCC4(CCCCC4)CC3)cc2)ncc1Br | 
45.1% | NC(=O)c1ccccc1Nc1nc(Nc2ccc(C(=O)N3CC4CCC(C3)N4)cc2)ncc1Br | 
15% | NC(=O)c1ccccc1Nc1nc(Nc2ccc(C(=O)N3CCC4(CC3)OCCO4)cc2)ncc1Br | 
47.6% | NC(=O)c1ccccc1Nc1nc(Nc2ccc(C(=O)N3CCC4(CCCO4)CC3)cc2)ncc1Br | 
49.3% | CN1C[C@H]2C[C@@H]1CN2C(=O)c1ccc(Nc2ncc(Br)c(Nc3ccccc3C(N)=O)n2)cc1 | 
60.4% | NC(=O)c1ccccc1Nc1nc(Nc2ccc(C(=O)N3CCC4(CCOC4)CC3)cc2)ncc1Br | IC50 [2]: 1.4 nM; IC50 [4]: 7.4 nM
46.8% | NC(=O)c1ccccc1Nc1nc(Nc2ccc(C(=O)N3CCC4(CCOCC4)CC3)cc2)ncc1Br | 
51.3% | NC(=O)c1ccccc1Nc1nc(Nc2ccc(C(=O)N3C[C@H]4C[C@@H]3CN4)cc2)ncc1Br | 
56.6% | CN1CC2CCC(C1)N2C(=O)c1ccc(Nc2ncc(Br)c(Nc3ccccc3C(N)=O)n2)cc1 | IC50 [2]: 1.5 nM; IC50 [4]: 12.6 nM
